Patent publication US20260297081A1, “COMPOUNDS AND METHODS OF TREATING CANCERS” (Cullgen Inc., priority 2023, published 2026)

Biological target: CDK4 (Homo sapiens, UniProt P11802+Q16531)
Assay: CDK4 percentage degradation in Calu-1 cells (Table 6)
Format: cell-based
Set-up: Cells that express cyclin D1-3 and CDK4/6 proteins were treated with heterobifunctional compounds; endogenous in cells; host or cells: Calu-1
Details: 16 hours; for inhibition at 0.04 µM: 40 nM; for inhibition at 0.2 µM: 200 nM
Experimental: Calu-(cells were treated with heterobifunctional compounds at 40 nM or 200 nM for 16 hours A: protein percentage degradation […]; B: protein percentage degradation <80%, and ≥50%; C: protein percentage degradation <50%, and ≥30%; D; protein percentage degradation […]; -, data not available.
Calu-1, T47D, MCF7, HCC1428 and other cells were cultured at 37° C. with 5% CO2 in RPMI 1640 or DMEM medium supplemented with 10% fetal bovine serum. Cells were authenticated using the short tandem repeat (STR) assays. Mycoplasma test results were negative. For palbo-resistant cell model, T47D cells were cultured long-term to resistance in the presence of 1 μM Palbociclib. Cells were deemed resistant when growing in the presence of Palbo at the same rate as parental cells.
Cultured cells were washed with cold PBS once and lysed in cold RIPA buffer supplemented with protease inhibitors and phosphatase inhibitors (Beyotime Biotechnology). The solutions were then incubated at 4 ? for 30 min with gentle agitation to fully lysed cells. Cell lysates were centrifuged at 13,000 rpm for 10 min at 4 ? and pellets were discarded. Total protein concentrations in the lysates were determined following BCA assays (Beyotime Biotechnology). Cell lysates were mixed with Laemmli loading buffer and heated at 99° C. for 5 min. Proteins were resolved on SDS-PAGE and visualized using Western ECL Substrate kits on a ChemiDoc MP Imaging system (Bio-Rad). Protein bands were quantitated using the Image Lab software provided by Bio-Rad.

Chain of CDK4 (P11802 2-303 limits assumed): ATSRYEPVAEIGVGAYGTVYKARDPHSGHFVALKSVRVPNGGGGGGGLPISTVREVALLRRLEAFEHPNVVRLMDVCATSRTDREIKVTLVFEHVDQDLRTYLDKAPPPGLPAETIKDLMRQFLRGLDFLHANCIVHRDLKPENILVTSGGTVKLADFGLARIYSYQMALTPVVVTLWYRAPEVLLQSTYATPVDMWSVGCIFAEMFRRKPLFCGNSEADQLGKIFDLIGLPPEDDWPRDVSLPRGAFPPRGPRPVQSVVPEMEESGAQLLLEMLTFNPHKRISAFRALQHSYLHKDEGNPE
Chain of CDK4 (P24385 whole entry partner): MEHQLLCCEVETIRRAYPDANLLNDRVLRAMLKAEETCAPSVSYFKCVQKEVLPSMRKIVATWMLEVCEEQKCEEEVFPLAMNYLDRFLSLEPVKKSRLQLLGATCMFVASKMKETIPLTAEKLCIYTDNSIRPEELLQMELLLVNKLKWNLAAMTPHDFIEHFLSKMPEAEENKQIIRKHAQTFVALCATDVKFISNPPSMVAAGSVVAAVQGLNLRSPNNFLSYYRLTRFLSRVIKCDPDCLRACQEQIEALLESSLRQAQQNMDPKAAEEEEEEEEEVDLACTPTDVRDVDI
Chain of CDK4 (Q16531 2-1140 limits assumed): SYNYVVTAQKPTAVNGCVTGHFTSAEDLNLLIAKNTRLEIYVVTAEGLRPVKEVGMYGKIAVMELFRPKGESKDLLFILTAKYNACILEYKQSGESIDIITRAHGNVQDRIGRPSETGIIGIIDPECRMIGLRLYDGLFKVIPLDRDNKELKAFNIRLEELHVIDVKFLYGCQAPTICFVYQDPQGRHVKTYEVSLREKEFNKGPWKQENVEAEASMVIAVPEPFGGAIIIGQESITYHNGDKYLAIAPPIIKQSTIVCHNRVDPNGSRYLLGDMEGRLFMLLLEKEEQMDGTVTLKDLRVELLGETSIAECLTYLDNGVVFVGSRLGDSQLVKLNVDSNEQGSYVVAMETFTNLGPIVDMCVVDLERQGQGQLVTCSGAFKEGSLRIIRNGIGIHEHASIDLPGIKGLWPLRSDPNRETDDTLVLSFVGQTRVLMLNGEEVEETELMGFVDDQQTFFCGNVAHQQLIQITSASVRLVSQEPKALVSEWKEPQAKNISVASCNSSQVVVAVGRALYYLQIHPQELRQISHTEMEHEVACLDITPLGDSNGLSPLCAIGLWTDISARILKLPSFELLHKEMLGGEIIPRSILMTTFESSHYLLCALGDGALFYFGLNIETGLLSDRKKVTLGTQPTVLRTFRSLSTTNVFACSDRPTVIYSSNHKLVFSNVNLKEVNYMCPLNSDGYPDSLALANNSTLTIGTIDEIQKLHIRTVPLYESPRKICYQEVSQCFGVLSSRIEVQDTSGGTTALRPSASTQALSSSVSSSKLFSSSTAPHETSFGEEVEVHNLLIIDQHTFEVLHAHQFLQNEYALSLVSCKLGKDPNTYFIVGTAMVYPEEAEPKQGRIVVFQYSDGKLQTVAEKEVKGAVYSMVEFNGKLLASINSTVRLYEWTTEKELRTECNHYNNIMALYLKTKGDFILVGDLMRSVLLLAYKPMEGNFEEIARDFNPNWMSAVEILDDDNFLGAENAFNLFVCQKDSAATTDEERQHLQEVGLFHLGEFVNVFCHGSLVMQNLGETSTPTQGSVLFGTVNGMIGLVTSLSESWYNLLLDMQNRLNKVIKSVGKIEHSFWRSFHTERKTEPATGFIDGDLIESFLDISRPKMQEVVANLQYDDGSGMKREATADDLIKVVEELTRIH

| inhibition at 0.04 µM [%] | inhibition at 0.2 µM [%] | Structure (SMILES) |
| --- | --- | --- |
| 50 to 80 | > 80 | COc1ccc(NC(=O)c2ccc(C)nc2NCCCCCCCNC(=O)CN2CCN(c3ccc(Nc4ncc5c(C)c(C(C)=O)c(=O)n(C6CCCC6)c5n4)nc3)CC2)nn1 [CPD-2, 2-((7-(2-(4-(6-((6-acetyl-8-cyclopentyl-5-methyl-7-oxo-7,8-dihydropyrido[2,3-d]pyrimidin-2-yl)amino)pyridin-3-yl)piperazin-1-yl)acetamido)heptyl)amino)-N-(6-methoxypyridazin-3-yl)-6-methylnicotinamide] |
| 50 to 80 | 50 to 80 | CC(=O)c1c(C)c2cnc(Nc3ccc(N4CCN(CC(=O)NCCCCCNc5nc(C)ccc5C(=O)Nc5nc(C)c(C)s5)CC4)cn3)nc2n(C2CCCC2)c1=O [CPD-3, 2-((5-(2-(4-(6-((6-acetyl-8-cyclopentyl-5-methyl-7-oxo-7,8-dihydropyrido[2,3-d]pyrimidin-2-yl)amino)pyridin-3-yl)piperazin-1-yl)acetamido)pentyl)amino)-N-(4,5-dimethylthiazol-2-yl)-6-methylnicotinamide] |
| 50 to 80 | – | CNc1ccc(C(=O)Nc2ccc(C)c(C3CC3)n2)c(NCCCCCNC(=O)CN2CCN(c3ccc(Nc4ncc5c(C)c(C(C)=O)c(=O)n(C6CCCC6)c5n4)nc3)CC2)n1 [CPD-7, 2-((5-(2-(4-(6-((6-acetyl-8-cyclopentyl-5-methyl-7-oxo-7,8-dihydropyrido[2,3-d]pyrimidin-2-yl)amino)pyridin-3-yl)piperazin-1-yl)acetamido)pentyl)amino)-N-(6-cyclopropyl-5-methylpyridin-2-yl)-6-(methylamino)nicotinamide] |
| 50 to 80 | > 80 | CC(=O)c1c(C)c2cnc(Nc3ccc(N4CCN(CC(=O)NCCCCCCCNc5nc(C)ccc5C(=O)Nc5ccc(C)c(C6CC6)n5)CC4)cn3)nc2n(C2CCCC2)c1=O [CPD-9, 2-((7-(2-(4-(6-((6-acetyl-8-cyclopentyl-5-methyl-7-oxo-7,8-dihydropyrido[2,3-d]pyrimidin-2-yl)amino)pyridin-3-yl)piperazin-1-yl)acetamido)heptyl)amino)-N-(6-cyclopropyl-5-methylpyridin-2-yl)-6-methylnicotinamide] |
| < 30 | – | CNc1ccc(C(=O)Nc2ccc(Cl)cn2)c(NCCCCCNC(=O)CN2CCN(c3ccc(Nc4ncc5c(C)c(C(C)=O)c(=O)n(C6CCCC6)c5n4)nc3)CC2)n1 [CPD-20, 2-((5-(2-(4-(6-((6-acetyl-8-cyclopentyl-5-methyl-7-oxo-7,8-dihydropyrido[2,3-d]pyrimidin-2-yl)amino)pyridin-3-yl)piperazin-1-yl)acetamido)pentyl)amino)-N-(5-chloropyridin-2-yl)-6-(methylamino)nicotinamide] |
| < 30 | 50 to 80 | CNc1ccc(C(=O)Nc2ccc(C3CC3)nn2)c(NCCCCCNC(=O)CN2CCN(c3ccc(Nc4ncc5c(C)c(C(C)=O)c(=O)n(C6CCCC6)c5n4)nc3)CC2)n1 [CPD-31, 2-((5-(2-(4-(6-((6-Acetyl-8-cyclopentyl-5-methyl-7-oxo-7,8-dihydropyrido[2,3-d]pyrimidin-2-yl)amino)pyridin-3-yl)piperazin-1-yl)acetamido)pentyl)amino)-N-(6-cyclopropylpyridazin-3-yl)-6-(methylamino)nicotinamide] |

More lines, now with the values behind:

| Structure (SMILES) | inhibition at 0.04 µM [%] | inhibition at 0.2 µM [%] |
| --- | --- | --- |
| CC(=O)c1c(C)c2cnc(Nc3ccc(N4CCN(CC(=O)NCCCNc5nc(C)ccc5C(=O)Nc5nc(C)c(C)s5)CC4)cn3)nc2n(C2CCCC2)c1=O [CPD-1, 2-((3-(2-(4-(6-((6-Acetyl-8-cyclopentyl-5-methyl-7-oxo-7,8-dihydropyrido[2,3-d]pyrimidin-2-yl)amino)pyridin-3-yl)piperazin-1-yl)acetamido)propyl)amino)-N-(4,5-dimethylthiazol-2-yl)-6-methylnicotinamide] | < 30 | 30 to 50 |
| CNc1ccc(C(=O)Nc2ccc(C)c(C3CC3)n2)c(NCCCCCCCNC(=O)CN2CCN(c3ccc(Nc4ncc5c(C)c(C(C)=O)c(=O)n(C6CCCC6)c5n4)nc3)CC2)n1 [CPD-6, 2-((7-(2-(4-(6-((6-acetyl-8-cyclopentyl-5-methyl-7-oxo-7,8-dihydropyrido[2,3-d]pyrimidin-2-yl)amino)pyridin-3-yl)piperazin-1-yl)acetamido)heptyl)amino)-N-(6-cyclopropyl-5-methylpyridin-2-yl)-6-(methylamino)nicotinamide] | 50 to 80 | – |
| CNc1ccc(C(=O)Nc2ccc(C(C)C)nn2)c(NCCCCCNC(=O)CN2CCN(c3ccc(Nc4ncc5c(C)c(C(C)=O)c(=O)n(C6CCCC6)c5n4)nc3)CC2)n1 [CPD-15, 2-((5-(2-(4-(6-((6-Acetyl-8-cyclopentyl-5-methyl-7-oxo-7,8-dihydropyrido[2,3-d]pyrimidin-2-yl)amino)pyridin-3-yl)piperazin-1-yl)acetamido)pentyl)amino)-N-(6-isopropylpyridazin-3-yl)-6-(methylamino)nicotinamide] | < 30 | < 30 |
| CNc1ccc(C(=O)Nc2ccc(N3CCCC3)nn2)c(NCCCCCNC(=O)CN2CCN(c3ccc(Nc4ncc5c(C)c(C(C)=O)c(=O)n(C6CCCC6)c5n4)nc3)CC2)n1 [CPD-17, 2-((5-(2-(4-(6-((6-Acetyl-8-cyclopentyl-5-methyl-7-oxo-7,8-dihydropyrido[2,3-d]pyrimidin-2-yl)amino)pyridin-3-yl)piperazin-1-yl)acetamido)pentyl)amino)-6-(methylamino)-N-(6-(pyrrolidin-1-yl)pyridazin-3-yl)nicotinamide] | < 30 | 30 to 50 |
| CNc1ccc(C(=O)Nc2ccc(C(F)(F)F)nn2)c(NCCCCCNC(=O)CN2CCN(c3ccc(Nc4ncc5c(C)c(C(C)=O)c(=O)n(C6CCCC6)c5n4)nc3)CC2)n1 [CPD-19, 2-((5-(2-(4-(6-((6-Acetyl-8-cyclopentyl-5-methyl-7-oxo-7,8-dihydropyrido[2,3-d]pyrimidin-2-yl)amino)pyridin-3-yl)piperazin-1-yl)acetamido)pentyl)amino)-6-(methylamino)-N-(6-(trifluoromethyl)pyridazin-3-yl)nicotinamide] | < 30 | – |
| CNc1ccc(C(=O)Nc2ccc(N(C)C)nn2)c(N(C)CCCCCNC(=O)CN2CCN(c3ccc(Nc4ncc5c(C)c(C(C)=O)c(=O)n(C6CCCC6)c5n4)nc3)CC2)n1 [CPD-23, 2-((5-(2-(4-(6-((6-Acetyl-8-cyclopentyl-5-methyl-7-oxo-7,8-dihydropyrido[2,3-d]pyrimidin-2-yl)amino)pyridin-3-yl)piperazin-1-yl)acetamido)pentyl)(methyl)amino)-N-(6-(dimethylamino)pyridazin-3-yl)-6-(methylamino)nicotinamide] | < 30 | < 30 |
| CNc1ccc(C(=O)Nc2ccc(N(C)C)nn2)c(Nc2cnn(CCNC(=O)CN3CCN(c4ccc(Nc5ncc6c(C)c(C(C)=O)c(=O)n(C7CCCC7)c6n5)nc4)CC3)n2)n1 [CPD-25, 2-((2-(2-(2-(4-(6-((6-Acetyl-8-cyclopentyl-5-methyl-7-oxo-7,8-dihydropyrido[2,3-d]pyrimidin-2-yl)amino)pyridin-3-yl)piperazin-1-yl)acetamido)ethyl)-2H-1,2,3-triazol-4-yl)amino)-N-(6-(dimethylamino)pyridazin-3-yl)-6-(methylamino)nicotinamide] | < 30 | 50 to 80 |
| CNc1ccc(C(=O)Nc2ccc3c(cnn3C)n2)c(NCCCCCNC(=O)CN2CCN(c3ccc(Nc4ncc5c(C)c(C(C)=O)c(=O)n(C6CCCC6)c5n4)nc3)CC2)n1 [CPD-32] | < 30 | < 30 |
